Patent US20050209157A1, “Short bioactive peptides and methods for their use” (priority 2001, published 2005)
No end group written: not given here.

Legend:
[1] = tested on: WI38; conditions: MTT, 24 hours with peptide; for WI38 LD50: normal fibroblast line; for LD50 WI38: WI38 normal lung fibroblast line
[2] = tested on: yeast (Saccharomyces cerevisiae); assay: Antimicrobial assay I, yeast assay in RPMI 1640; format: cell-based; conditions: RPMI 1640 media
[3] = tested on: human red blood cells (RBC); assay: in vitro; format: cell-based; conditions: hemolytic assay, concentration at 50% hemolysis, 1 hour at 37° C.
[4] = tested on: SW480; assay: Anti-cancer assay, MTT, LD50; format: cell-based; conditions: SW480 colon adenocarcinoma line, 24 hours with peptide
Description: (§1) Numbers are LD50 values (μg/mL).

[5] = tested on: HeLaS3; assay: Anti-cancer assay, MTT, LD50; format: cell-based; conditions: 24 hours with peptide, cervical carcinoma
Description: as §1

[6] = tested on: MCF7; assay: Anti-cancer assay, MTT, LD50; format: cell-based; conditions: MCF7 breast adenocarcinoma line, MTT, 24 hours with peptide
Description: as §1

[7] = tested on: PC3; assay: Anti-cancer assay, MTT, LD50; format: cell-based; conditions: 24 hours with peptide, prostate adenocarcinoma
Description: as §1

[8] = tested on: BMKC; assay: Anti-cancer assay, MTT, LD50; format: cell-based; conditions: BMKC cloned melanoma line, 24 hours with peptide
Description: as §1

[9] = tested on: H1299; assay: Anti-cancer assay, MTT, LD50; format: cell-based; conditions: 24 hours with peptide, lung large cell carcinoma
Description: as §1

[10] = tested on: Staphylococcus aureus ATCC 6538; assay: Antimicrobial assay I, MIC by OD measurement; format: cell-based; conditions: 37° C. for 24 hours, absorbance 620 nm
[11] = tested on: Pseudomonas aeruginosa ATCC 9027; assay: Antimicrobial assay I, MIC by OD measurement; format: cell-based; conditions: 37° C. for 24 hours, absorbance 620 nm

For KAKLF-NH2 [P130, KAKLF-NH2], the “WI38 LD50” value [1] was “> (> indicates greater than 1000)”, the “LD50 WI38” value [1] was “> (> indicates greater than 1000)” and the “yeast (MIC or MFC)” value [2] was 200 µg/mL. The LD50 [3] was “> (> indicates greater than 1000)”, the “LD50 SW480” value [4] was “> (> indicates greater than 1000)” and the “HeLaS3 LD50” value [5] was “> (> indicates greater than 1000)”. The “LD50 MCF7” value [6] was “> (> indicates greater than 1000)”, the “PC3 LD50” value [7] was “> (> indicates greater than 1000)” and the “LD50 BMKC” value [8] was “> (> indicates greater than 1000)”. The “H1299 LD50” value [9] was “> (> indicates greater than 1000)”, the “staph6538 (MIC)” value [10] was 200 µg/mL and the “paerug9027 (MIC)” value [11] was 200 µg/mL.

With “FALAKKALKKAKKAL-NH2 [P40, FALAKKALKKAKKAL-NH2]” the “WI38 LD50” value [1] was “> (> indicates greater than 1000)”, the “LD50 WI38” value [1] was “> (> indicates greater than 1000)” and the “yeast (MIC or MFC)” value [2] was 100 µg/mL. The LD50 [3] was “> (> indicates greater than 1000)”, the “LD50 SW480” value [4] was “> (> indicates greater than 1000)” and the “HeLaS3 LD50” value [5] was “> (> indicates greater than 1000)”. For the same substance, the “LD50 MCF7” value [6] was 760 µg/mL, the “PC3 LD50” value [7] was 435 µg/mL and the “LD50 BMKC” value [8] was “> (> indicates greater than 1000)”. For the same substance, the “H1299 LD50” value [9] was “> (> indicates greater than 1000)”, the “staph6538 (MIC)” value [10] was 100 µg/mL and the “paerug9027 (MIC)” value [11] was 25 µg/mL.

With FAKLLAKLAKKEL-NH2 [P126] the “WI38 LD50” value [1] was “> (> indicates greater than 1000)”, the “LD50 WI38” value [1] was “> (> indicates greater than 1000)” and the “yeast (MIC or MFC)” value [2] was “> (> indicates greater than 200 μg/mL)”. The LD50 [3] was “> (> indicates greater than 1000)”, the “LD50 SW480” value [4] was “> (> indicates greater than 1000)” and the “HeLaS3 LD50” value [5] was “> (> indicates greater than 1000)”. For the same substance, the “LD50 MCF7” value [6] was “> (> indicates greater than 1000)”, the “PC3 LD50” value [7] was “> (> indicates greater than 1000)” and the “LD50 BMKC” value [8] was “> (> indicates greater than 1000)”. For the same substance, the “H1299 LD50” value [9] was “> (> indicates greater than 1000)”, the “staph6538 (MIC)” value [10] was “> (> indicates greater than 200 μg/mL)” and the “paerug9027 (MIC)” value [11] was “> (> indicates greater than 200 μg/mL)”.

In the case of KWKLF-NH2 [P131, KWKLF-NH2], the “WI38 LD50” value [1] was “> (> indicates greater than 1000)”, the “LD50 WI38” value [1] was “> (> indicates greater than 1000)” and the “yeast (MIC or MFC)” value [2] was 100 µg/mL. The LD50 [3] was “> (> indicates greater than 1000)”, the “LD50 SW480” value [4] was 555 µg/mL and the “HeLaS3 LD50” value [5] was “> (> indicates greater than 1000)”. For the same substance, the “LD50 MCF7” value [6] was 600 µg/mL, the “PC3 LD50” value [7] was “> (> indicates greater than 1000)” and the “LD50 BMKC” value [8] was “> (> indicates greater than 1000)”. The “H1299 LD50” value [9] was “> (> indicates greater than 1000)”, the “staph6538 (MIC)” value [10] was 25 µg/mL and the “paerug9027 (MIC)” value [11] was 10 µg/mL.

In the case of FALKALKKAL-NH2 [P170, FALKALKKAL-NH2], the “WI38 LD50” value [1] was “> (> indicates greater than 1000)”, the “LD50 WI38” value [1] was “> (> indicates greater than 1000)” and the “yeast (MIC or MFC)” value [2] was 100 µg/mL. The LD50 [3] was “> (> indicates greater than 1000)”, the “LD50 SW480” value [4] was “> (> indicates greater than 1000)” and the “HeLaS3 LD50” value [5] was “> (> indicates greater than 1000)”. The “LD50 MCF7” value [6] was 940 µg/mL, the “PC3 LD50” value [7] was “> (> indicates greater than 1000)” and the “LD50 BMKC” value [8] was “> (> indicates greater than 1000)”. For the same substance, the “H1299 LD50” value [9] was “> (> indicates greater than 1000)”, the “staph6538 (MIC)” value [10] was 200 µg/mL and the “paerug9027 (MIC)” value [11] was 100 µg/mL.

For FALALKALKK-NH2 [P169], the “WI38 LD50” value [1] was “> (> indicates greater than 1000)”, the “LD50 WI38” value [1] was “> (> indicates greater than 1000)” and the “yeast (MIC or MFC)” value [2] was 100 µg/mL. The LD50 [3] was “> (> indicates greater than 1000)”, the “LD50 SW480” value [4] was “> (> indicates greater than 1000)” and the “HeLaS3 LD50” value [5] was “> (> indicates greater than 1000)”. The “LD50 MCF7” value [6] was 510 µg/mL, the “PC3 LD50” value [7] was “> (> indicates greater than 1000)” and the “LD50 BMKC” value [8] was 530 µg/mL. For the same substance, the “H1299 LD50” value [9] was 640 µg/mL, the “staph6538 (MIC)” value [10] was 100 µg/mL and the “paerug9027 (MIC)” value [11] was 100 µg/mL.

In the case of FALAKALKKAL-NH2 [P166, FALAKALKKAL-NH2], the “WI38 LD50” value [1] was “> (> indicates greater than 1000)”, the “LD50 WI38” value [1] was “> (> indicates greater than 1000)” and the “yeast (MIC or MFC)” value [2] was “> (> indicates greater than 200 μg/mL)”. The LD50 [3] was “> (> indicates greater than 1000)”, the “LD50 SW480” value [4] was “> (> indicates greater than 1000)” and the “HeLaS3 LD50” value [5] was “> (> indicates greater than 1000)”. For the same substance, the “LD50 MCF7” value [6] was “> (> indicates greater than 1000)”, the “PC3 LD50” value [7] was “> (> indicates greater than 1000)” and the “LD50 BMKC” value [8] was “> (> indicates greater than 1000)”. For the same substance, the “H1299 LD50” value [9] was “> (> indicates greater than 1000)”, the “staph6538 (MIC)” value [10] was “> (> indicates greater than 200 μg/mL)” and the “paerug9027 (MIC)” value [11] was “> (> indicates greater than 200 μg/mL)”.

For FAKLWAKLAKKL-NH2 [P136], the “WI38 LD50” value [1] was “> (> indicates greater than 1000)”, the “LD50 WI38” value [1] was “> (> indicates greater than 1000)” and the “yeast (MIC or MFC)” value [2] was 100 µg/mL. The LD50 [3] was “> (> indicates greater than 1000)”, the “LD50 SW480” value [4] was 600 µg/mL and the “HeLaS3 LD50” value [5] was 400 µg/mL. The “LD50 MCF7” value [6] was 500 µg/mL, the “PC3 LD50” value [7] was 900 µg/mL and the “LD50 BMKC” value [8] was 530 µg/mL. For the same substance, the “H1299 LD50” value [9] was 450 µg/mL, the “staph6538 (MIC)” value [10] was 100 µg/mL and the “paerug9027 (MIC)” value [11] was 50 µg/mL.

FAKKLAKKAKLAKKL-NH2 [P77] was tested, and the “WI38 LD50” value [1] was “> (> indicates greater than 1000)”, the “LD50 WI38” value [1] was “> (> indicates greater than 1000)” and the “yeast (MIC or MFC)” value [2] was 200 µg/mL. The LD50 [3] was “> (> indicates greater than 1000)”, the “LD50 SW480” value [4] was “> (> indicates greater than 1000)” and the “HeLaS3 LD50” value [5] was “> (> indicates greater than 1000)”. For the same substance, the “LD50 MCF7” value [6] was “> (> indicates greater than 1000)”, the “PC3 LD50” value [7] was “> (> indicates greater than 1000)” and the “LD50 BMKC” value [8] was 125 µg/mL. For the same substance, the “H1299 LD50” value [9] was “> (> indicates greater than 1000)”, the “staph6538 (MIC)” value [10] was 200 µg/mL and the “paerug9027 (MIC)” value [11] was 100 µg/mL.

For FAKAIAKIAFGKGIGKVGKKLL-NH2 [P134], the “WI38 LD50” value [1] was “> (> indicates greater than 1000)”, the “LD50 WI38” value [1] was “> (> indicates greater than 1000)” and the “yeast (MIC or MFC)” value [2] was 200 µg/mL. The LD50 [3] was “> (> indicates greater than 1000)”, the “LD50 SW480” value [4] was 740 µg/mL and the “HeLaS3 LD50” value [5] was “> (> indicates greater than 1000)”. For the same substance, the “LD50 MCF7” value [6] was “> (> indicates greater than 1000)”, the “PC3 LD50” value [7] was “> (> indicates greater than 1000)” and the “LD50 BMKC” value [8] was “> (> indicates greater than 1000)”. The “H1299 LD50” value [9] was “> (> indicates greater than 1000)”, the “staph6538 (MIC)” value [10] was 100 µg/mL and the “paerug9027 (MIC)” value [11] was “> (> indicates greater than 200 μg/mL)”.

With FAKLLAKLAKK-NH2 [P151] the “WI38 LD50” value [1] was “> (> indicates greater than 1000)”, the “LD50 WI38” value [1] was “> (> indicates greater than 1000)” and the “yeast (MIC or MFC)” value [2] was 200 µg/mL. The LD50 [3] was “> (> indicates greater than 1000)”, the “LD50 SW480” value [4] was “> (> indicates greater than 1000)” and the “HeLaS3 LD50” value [5] was “> (> indicates greater than 1000)”. For the same substance, the “LD50 MCF7” value [6] was “> (> indicates greater than 1000)”, the “PC3 LD50” value [7] was “> (> indicates greater than 1000)” and the “LD50 BMKC” value [8] was “> (> indicates greater than 1000)”. The “H1299 LD50” value [9] was “> (> indicates greater than 1000)”, the “staph6538 (MIC)” value [10] was “> (> indicates greater than 200 μg/mL)” and the “paerug9027 (MIC)” value [11] was “> (> indicates greater than 200 μg/mL)”.
